Where two headings read alike, the source gives them in different places.
Assays:
human orexin-1 receptor = human orexin-1 receptor (Homo sapiens (Human), UniProt O43613); assay: Intracellular calcium measurements (FLIPR), antagonism of orexin-A response; type: cell-based; conditions: CHO cells, 3 nM orexin-A, read-out: IC50 Ox1
Method: (§1) In Vitro Assay: Intracellular Calcium Measurements:
(§2) Chinese hamster ovary (CHO) cells expressing the human orexin-1 receptor and the human orexin-2 receptor, respectively, are grown in culture medium (Ham F-12 with L-Glutamine) containing 300 μg/ml G418, 100 U/ml penicillin, 100 μg/ml streptomycin and 10% heat inactivated fetal calf serum (FCS). The cells are seeded at 20'000 cells/well into 384-well black clear bottom sterile plates (Greiner). The seeded plates are incubated overnight at 37° C. in 5% CO2.
(§3) Human orexin-A as an agonist is prepared as 1 mM stock solution in MeOH: water (1:1), diluted in HBSS containing 0.1% bovine serum albumin (BSA), NaHCO3: 0.375 g/l and 20 mM HEPES for use in the assay at a final concentration of 3 nM.
(§4) Antagonists are prepared as 10 mM stock solution in DMSO, then diluted in 384-well plates using DMSO followed by a transfer of the dilutions into in HBSS containing 0.1% bovine serum albumin (BSA), NaHCO3: 0.375 g/l and 20 mM HEPES. On the day of the assay, 50 μl of staining buffer (HBSS containing 1% FCS, 20 mM HEPES, NaHCO3: 0.375 g/l, 5 mM probenecid (Sigma) and 3 μM of the fluorescent calcium indicator fluo-4 AM (1 mM stock solution in DMSO, containing 10% pluronic) is added to each well. The 384-well cell-plates are incubated for 50 min at 37° C. in 5% CO2 followed by equilibration at RT for 30 min before measurement.
(§5) Within the Fluorescent Imaging Plate Reader (FLIPR Tetra, Molecular Devices), antagonists are added to the plate in a volume of 10 μl/well, incubated for 10 min or (where explicitly indicated) for 120 min and finally 10 μl/well of agonist is added. Fluorescence is measured for each well at 1 second intervals, and the height of each fluorescence peak is compared to the height of the fluorescence peak induced by 3 nM orexin-A with vehicle in place of antagonist. The IC50 value (the concentration of compound needed to inhibit 50% of the agonistic response) is determined and may be normalized using the obtained IC50 value of a on-plate reference compound. Optimized conditions were achieved by adjustment of pipetting speed and cell splitting regime. The calculated IC50 values may fluctuate depending on the daily cellular assay performance. Fluctuations of this kind are known to those skilled in the art.

human orexin-2 receptor = human orexin-2 receptor (Homo sapiens (Human), UniProt O43614); assay: as above; type: cell-based; conditions: CHO cells, 3 nM orexin-A, read-out: IC50 Ox2
Method: as §1, §2, §3, §4, §5

[1] = compound incubation time of 120 min

Sequence of human orexin-1 receptor (O43613 whole entry): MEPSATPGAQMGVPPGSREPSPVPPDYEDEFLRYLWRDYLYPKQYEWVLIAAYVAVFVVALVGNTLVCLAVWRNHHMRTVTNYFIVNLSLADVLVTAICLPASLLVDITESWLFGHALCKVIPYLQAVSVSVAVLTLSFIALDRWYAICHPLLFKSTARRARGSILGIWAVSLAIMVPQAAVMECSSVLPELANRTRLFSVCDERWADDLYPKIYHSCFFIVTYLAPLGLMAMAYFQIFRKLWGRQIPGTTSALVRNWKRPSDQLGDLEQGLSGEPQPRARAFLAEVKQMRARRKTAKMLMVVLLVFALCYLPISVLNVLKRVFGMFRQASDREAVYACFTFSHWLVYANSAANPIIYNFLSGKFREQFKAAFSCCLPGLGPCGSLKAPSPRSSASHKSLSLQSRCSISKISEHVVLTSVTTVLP
Sequence of human orexin-2 receptor (O43614 whole entry): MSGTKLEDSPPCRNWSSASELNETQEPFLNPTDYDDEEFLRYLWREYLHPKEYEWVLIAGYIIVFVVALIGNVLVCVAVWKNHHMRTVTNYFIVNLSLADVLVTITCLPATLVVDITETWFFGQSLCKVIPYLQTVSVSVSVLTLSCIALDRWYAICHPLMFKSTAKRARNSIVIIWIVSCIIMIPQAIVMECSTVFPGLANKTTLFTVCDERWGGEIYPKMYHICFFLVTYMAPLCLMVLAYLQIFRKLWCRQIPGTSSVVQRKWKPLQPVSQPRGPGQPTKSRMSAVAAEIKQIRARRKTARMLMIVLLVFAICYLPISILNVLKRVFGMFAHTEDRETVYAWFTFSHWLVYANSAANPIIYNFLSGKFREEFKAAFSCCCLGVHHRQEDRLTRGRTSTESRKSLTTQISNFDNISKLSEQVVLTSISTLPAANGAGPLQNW

| IC50 (human orexin-1 receptor; compound incubation 10 min) | IC50 (human orexin-2 receptor; compound incubation 10 min) | IC50 (human orexin-1 receptor; [1]) | IC50 (human orexin-2 receptor; [1]) | SMILES |
| --- | --- | --- | --- | --- |
| 74 nM | 34 nM | – | – | COc1ccc(S(=O)(=O)N2CCC[C@H]2C(=O)Nc2ccc(F)c(Cl)c2)cc1 [Example 31, (S)-1-(4-Methoxy-benzenesulfonyl)-pyrrolidine-2-carboxylic acid (3-chloro-4-fluoro-phenyl)-amide] |
| 134 nM | 38 nM | – | – | CCOc1cccc(NC(=O)[C@@H]2CCCN2S(=O)(=O)c2ccc(OC)cc2)c1 [Example 32, (S)-1-(4-Methoxy-benzenesulfonyl)-pyrrolidine-2-carboxylic acid (3-ethoxy-phenyl)-amide] |
| 129 nM | 12 nM | – | – | COc1ccc(S(=O)(=O)N2CCC[C@H]2C(=O)Nc2ccc3c(c2)CCC3)cc1 [Example 33, (S)-1-(4-Methoxy-benzenesulfonyl)-pyrrolidine-2-carboxylic acid indan-5-ylamide] |
| 54 nM | 8 nM | – | – | CCc1cccc(NC(=O)[C@@H]2CCCN2S(=O)(=O)c2ccc(OC)cc2)c1 [Example 34, (S)-1-(4-Methoxy-benzenesulfonyl)-pyrrolidine-2-carboxylic acid (3-ethyl-phenyl)-amide] |
| 714 nM | 209 nM | – | – | COc1ccc(S(=O)(=O)N2CCC[C@H]2C(=O)Nc2cc(Cl)ccc2OC)cc1 [Example 35, (S)-1-(4-Methoxy-benzenesulfonyl)-pyrrolidine-2-carboxylic acid (5-chloro-2-methoxy-phenyl)-amide] |
| 569 nM | 136 nM | – | – | COc1ccc(S(=O)(=O)N2CCC[C@H]2C(=O)Nc2ccc(F)c(F)c2)cc1 [Example 36, (S)-1-(4-Methoxy-benzenesulfonyl)-pyrrolidine-2-carboxylic acid (3,4-difluoro-phenyl)-amide] |
| 70 nM | 28 nM | – | – | COc1ccc(S(=O)(=O)N2CCC[C@H]2C(=O)Nc2ccc(F)c(C)c2)cc1 [Example 37, (S)-1-(4-Methoxy-benzenesulfonyl)-pyrrolidine-2-carboxylic acid (4-fluoro-3-methyl-phenyl)-amide] |
| 304 nM | 26 nM | – | – | COc1ccc(S(=O)(=O)N2CCC[C@H]2C(=O)Nc2cc(C)ccc2F)cc1 [Example 38, (S)-1-(4-Methoxy-benzenesulfonyl)-pyrrolidine-2-carboxylic acid (2-fluoro-5-methyl-phenyl)-amide] |
| 235 nM | 18 nM | – | – | COc1ccc(S(=O)(=O)N2CCC[C@H]2C(=O)Nc2ccc(Cl)c(C)c2)cc1 [Example 39, (S)-1-(4-Methoxy-benzenesulfonyl)-pyrrolidine-2-carboxylic acid (4-chloro-3-methyl-phenyl)-amide] |
| 130 nM | 58 nM | – | – | COc1ccc(S(=O)(=O)N2CCC[C@H]2C(=O)Nc2ccc(Cl)c(Cl)c2)cc1 [Example 40, (S)-1-(4-Methoxy-benzenesulfonyl)-pyrrolidine-2-carboxylic acid (3,4-dichloro-phenyl)-amide] |
| – | – | 79 nM | 49 nM | Cc1cc(C)cc(NC(=O)[C@@H]2CCCN2S(=O)(=O)c2ccc(Br)cc2)c1 [Example 41, (S)-1-(4-Bromo-benzenesulfonyl)-pyrrolidine-2-carboxylic acid (3,5-dimethyl-phenyl)-amide] |
| – | – | 216 nM | 26 nM | Cc1cc(C)cc(NC(=O)[C@@H]2CCCN2S(=O)(=O)c2cccc3ccccc23)c1 [Example 42, (S)-1-(Naphthalene-1-sulfonyl)-pyrrolidine-2-carboxylic acid (3,5-dimethyl-phenyl)-amide] |
| – | – | 73 nM | 25 nM | Cc1cc(C)cc(NC(=O)[C@@H]2CCCN2S(=O)(=O)c2ccc3ccccc3c2)c1 [Example 43, (S)-1-(Naphthalene-2-sulfonyl)-pyrrolidine-2-carboxylic acid (3,5-dimethyl-phenyl)-amide] |
| – | – | 109 nM | 101 nM | COc1ccc(S(=O)(=O)N2CCC[C@H]2C(=O)Nc2cc(C)cc(C)c2)cc1OC [Example 44, (S)-1-(3,4-Dimethoxy-benzenesulfonyl)-pyrrolidine-2-carboxylic acid (3,5-dimethyl-phenyl)-amide] |
| – | – | 166 nM | 168 nM | COc1cc(C)ccc1S(=O)(=O)N1CCC[C@H]1C(=O)Nc1cc(C)cc(C)c1 [Example 45, (S)-1-(2-Methoxy-4-methyl-benzenesulfonyl)-pyrrolidine-2-carboxylic acid (3,5-dimethyl-phenyl)-amide] |
| – | – | 35 nM | 32 nM | Cc1cc(C)cc(NC(=O)[C@@H]2CCCN2S(=O)(=O)c2ccc(Cl)cc2)c1 [Example 46, (S)-1-(4-Chloro-benzenesulfonyl)-pyrrolidine-2-carboxylic acid (3,5-dimethyl-phenyl)-amide] |
| – | – | 189 nM | 92 nM | C=Cc1ccc(S(=O)(=O)N2CCC[C@H]2C(=O)Nc2cc(C)cc(C)c2)cc1 [Example 47, (S)-1-(4-Vinyl-benzenesulfonyl)-pyrrolidine-2-carboxylic acid (3,5-dimethyl-phenyl)-amide] |
| – | – | 43 nM | 4 nM | COc1ccc(C)cc1S(=O)(=O)N1CCC[C@H]1C(=O)Nc1cc(C)cc(C)c1 [Example 48, (S)-1-(2-Methoxy-5-methyl-benzenesulfonyl)-pyrrolidine-2-carboxylic acid (3,5-dimethyl-phenyl)-amide] |
| – | – | 16 nM | 197 nM | Cc1cc(C)cc(NC(=O)[C@@H]2CCCN2S(=O)(=O)c2ccc(S(C)(=O)=O)cc2)c1 [Example 49, (S)-1-(4-Methanesulfonyl-benzenesulfonyl)-pyrrolidine-2-carboxylic acid (3,5-dimethyl-phenyl)-amide] |
| – | – | 1580 nM | 36 nM | Cc1cc(C)cc(NC(=O)[C@@H]2CCCN2S(=O)(=O)c2cc(C(F)(F)F)ccc2Cl)c1 [Example 50, (S)-1-(2-Chloro-5-trifluoromethyl-benzenesulfonyl)-pyrrolidine-2-carboxylic acid (3,5-dimethyl-phenyl)-amide] |
| – | – | 80 nM | 14 nM | Cc1cc(C)cc(NC(=O)[C@@H]2CCCN2S(=O)(=O)c2ccc(C(F)(F)F)cc2Cl)c1 [Example 51, (S)-1-(2-Chloro-4-trifluoromethyl-benzenesulfonyl)-pyrrolidine-2-carboxylic acid (3,5-dimethyl-phenyl)-amide] |
| – | – | 89 nM | 82 nM | Cc1cc(C)cc(NC(=O)[C@@H]2CCCN2S(=O)(=O)c2ccc(C)cc2Br)c1 [Example 52, (S)-1-(2-Bromo-4-methyl-benzenesulfonyl)-pyrrolidine-2-carboxylic acid (3,5-dimethyl-phenyl)-amide] |
| – | – | 48 nM | 19 nM | Cc1cc(C)cc(NC(=O)[C@@H]2CCCN2S(=O)(=O)c2ccc(Cl)c(C(F)(F)F)c2)c1 [Example 53, (S)-1-(4-Chloro-3-trifluoromethyl-benzenesulfonyl)-pyrrolidine-2-carboxylic acid (3,5-dimethyl-phenyl)-amide] |
| – | – | 218 nM | 158 nM | Cc1cc(C)cc(NC(=O)[C@@H]2CCCN2S(=O)(=O)c2ccc(Cl)c(Cl)c2)c1 [Example 54, (S)-1-(3,4-Dichloro-benzenesulfonyl)-pyrrolidine-2-carboxylic acid (3,5-dimethyl-phenyl)-amide] |
| – | – | 234 nM | 171 nM | Cc1cc(C)cc(NC(=O)[C@@H]2CCCN2S(=O)(=O)c2cc(C)c(Cl)cc2C)c1 [Example 55, (S)-1-(4-Chloro-2,5-dimethyl-benzenesulfonyl)-pyrrolidine-2-carboxylic acid (3,5-dimethyl-phenyl)-amide] |
| – | – | 211 nM | 108 nM | Cc1cc(C)cc(NC(=O)[C@@H]2CCCN2S(=O)(=O)c2ccc(C)cc2C)c1 [Example 56, (S)-1-(2,4-Dimethyl-benzenesulfonyl)-pyrrolidine-2-carboxylic acid (3,5-dimethyl-phenyl)-amide] |
| – | – | 62 nM | 22 nM | Cc1cc(C)cc(NC(=O)[C@@H]2CCCN2S(=O)(=O)c2ccc(Br)cc2C)c1 [Example 57, (S)-1-(4-Bromo-2-methyl-benzenesulfonyl)-pyrrolidine-2-carboxylic acid (3,5-dimethyl-phenyl)-amide] |
| – | – | 179 nM | 106 nM | Cc1cc(C)cc(NC(=O)[C@@H]2CCCN2S(=O)(=O)c2ccc(Br)cc2Cl)c1 [Example 58, (S)-1-(4-Bromo-2-chloro-benzenesulfonyl)-pyrrolidine-2-carboxylic acid (3,5-dimethyl-phenyl)-amide] |
